{"source": "patent US20150181873A1", "about": "“HERBICIDE-RESISTANT SUNFLOWER PLANTS, POLYNUCLEOTIDES ENCODING HERBICIDE=RESISTANT ACETO HYDROXY ACID SYNTHASE LARGE SUBUNIT PROTEINS, AND METHODS OF USE” (NIDERA S.A., priority 2013, published 2015)", "key": {"S4897 plants": {"system": "S4897 plants", "experiment": "Field trial of resistance to imazapic", "assay_type": "in vivo, Helianthus annuus", "conditions": "S4897 vs IMISUN-1 (Ala190-to-Val); field trials in Argentina; no data presented", "method": "In field trials in Argentina, S4897 plants were tested for resistance to imazapic. […] This trial had single row plots and was treated on a windy day, so the actual herbicide dose reaching the plants was likely less than was applied."}, "[1]": {"system": "AHAS of S4897 sunflower (Ala107-to-Thr AHASL1)", "experiment": "AHAS activity analysis of young leaves", "assay_type": "biochemical, Helianthus annuus", "conditions": "S4897 vs Clearfield and conventional non-Clearfield variety; higher concentration of imazamox (FIG. 7)", "method": "FIG. 7 is graphical illustration of a comparison of the inhibition of AHAS by Raptor for a non-Clearfield variety, a Clearfield variety and S4897 sunflower plants as described in Example 5.\nFIG. 8 is graphical illustration of a comparison of the inhibition of AHAS by Glean for a non-Clearfield variety, a Clearfield variety and S4897 sunflower plants as described in Example 5.\nAHAS activity analysis was also conducted by selecting actively growing young leaves from plants that were not sprayed with herbicide at approximately four weeks after planting."}, "S4897 sunflower plants": {"system": "S4897 sunflower plants", "experiment": "Greenhouse imazamox spray test (FIG. 3/4), S4897", "assay_type": "in vivo, Helianthus annuus", "conditions": "S4897 vs IMISUN-1 and wild-type; imazamox 100 and 200 g ai/ha; 17 days after application", "method": "(§1) The S4897 and IMISUN-1 sunflower plants were spray-treated with imazamox at rate of 200 g ai/ha. […] The photograph was taken a few days after the plants were spray treated.\n(§2) FIG. 4 is graphical illustration of herbicide injury in a greenhouse test following the spray treatment of IMISUN-1, wild-type, and S4897 sunflower plants with imazamox at either 100 (light columns) or 200 g ai/ha (dark columns). […] Herbicide injury was evaluated 17 days after the imazamox application."}, "[2]": {"system": "Clearfield sunflower variety C", "experiment": "Greenhouse spray injury rating, Clearfield variety C", "assay_type": "in vivo, Helianthus annuus", "conditions": "scale 0-9", "excerpt": "(§3) Sunflower lines S4897, Clearfield® sunflower varieties A, B, C and a conventional non-Clearfield variety were sprayed with three rates of imazamox (Raptor™), 100, 200 and 300 gm ai/ha plus 0.5% Sun It II and two rates of imazapyr (Arsenal™) 160 and 360 gm ai/ha plus 0.5% Sun It II when the plants were at the two to three leaf stage. Ratings were taken at 14 days after application (DAT) for injury. Injury was rated on a scale from 0 to 9 where 0=no injury to 9=dead plant. Twelve plants were sprayed per herbicide/rate treatment. Statistical analysis was conducted with STATGRAPHICS Plus 5.0 by using ANOVA and LSD procedures.\n(§4) After plants were sprayed, it was realized that a height difference between S4897 and other sunflower varieties would have impacted the actual herbicide dose that was delivered. The spray boom height had been calibrated against S4897 and since the other varieties were taller and closer to the boom they would have received a greater dose of herbicide. Rates were recalibrated for the other varieties to determine the approximate dose they would have received. Assessments were made as presented in Table 2 since it was not possible to make a direct rate comparison due to the effect of the height. For example injury scores were compare for S4897 treated imazamox rate 100 gm ai/ha to the other varieties treated at 75 gm ai/ha. The treatment dose of 300 gm ai/ha for line S4897 was equivalent to the treatment of 200 gm ai/ha for the other varieties, which […]."}, "Sunflower line S4897": {"system": "Sunflower line S4897", "experiment": "Greenhouse spray injury rating, line S4897", "assay_type": "in vivo, Helianthus annuus", "excerpt": "as §3, §4"}, "[3]": {"system": "wild-type sunflower plants", "experiment": "Greenhouse imazamox spray test (FIG. 3/4), wild-type", "assay_type": "in vivo, Helianthus annuus", "conditions": "imazamox 100 or 200 g ai/ha", "method": "as §1, §2"}, "[4]": {"system": "Conventional non-Clearfield sunflower variety", "experiment": "Greenhouse spray injury rating, conventional variety", "assay_type": "in vivo, Helianthus annuus", "conditions": "scale 0-9", "excerpt": "as §3, §4"}, "[5]": {"system": "Clearfield sunflower variety B", "experiment": "Greenhouse spray injury rating, Clearfield variety B", "assay_type": "in vivo, Helianthus annuus", "conditions": "scale 0-9", "excerpt": "as §3, §4"}, "[6]": {"system": "Clearfield sunflower variety A", "experiment": "Greenhouse spray injury rating, Clearfield variety A", "assay_type": "in vivo, Helianthus annuus", "excerpt": "as §3, §4"}, "[7]": {"conditions": "imazamox 300 gm ai/ha, scale 0-9"}}}
{"smiles": "Cc1cnc(C2=NC(=O)C(C)(C(C)C)N2)c(C(=O)O)c1", "note": "(stereo not shown) [imazapic]", "values": [{"measurement": "resistance to imazapic", "setting": "S4897 plants", "value": "clearly superior"}]}
{"smiles": "COCc1cnc(C2=NC(C)(C(C)C)C(=O)N2)c(C(=O)O)c1", "note": "(stereo not shown) [Imazamox, imazamox]", "values": [{"measurement": "inhibition of AHAS activity", "setting": "[1]", "value": "less inhibition"}, {"measurement": "herbicide injury / resistance or tolerance", "setting": "S4897 sunflower plants", "value": "significantly greater resistance or tolerance"}, {"measurement": "Injury at 14 DAT", "setting": "[2]; imazamox 75 gm ai/ha (100/75)", "value": 1.8, "unit": "b"}, {"measurement": "Injury at 14 DAT", "setting": "[2]; imazamox 150 gm ai/ha", "value": 2.9, "unit": "b"}, {"measurement": "Injury at 14 DAT", "setting": "[2]; imazamox 300 gm ai/ha", "value": 4.6, "unit": "b"}, {"measurement": "Injury at 14 DAT", "setting": "Sunflower line S4897; imazamox 100 gm ai/ha (100/75), scale 0=no injury to 9=dead plant", "value": 0.5, "unit": "a"}, {"measurement": "Injury at 14 DAT", "setting": "Sunflower line S4897; imazamox 200 gm ai/ha (column 200/150), scale 0-9", "value": 0.8, "unit": "a"}, {"measurement": "Injury at 14 DAT", "setting": "Sunflower line S4897; imazamox 200 gm ai/ha (column 200/150), scale 0-9, listed as imazamox", "value": "little to no injury"}, {"measurement": "Injury at 14 DAT", "setting": "Sunflower line S4897; [7]", "value": 0.8, "unit": "a"}, {"measurement": "Injury at 14 DAT", "setting": "Sunflower line S4897; imazamox 300 gm ai/ha, scale 0-9, listed as imazamox", "value": "very little injury"}, {"measurement": "survival following spray treatment", "setting": "[3]", "value": "did not survive"}, {"measurement": "Injury at 14 DAT", "setting": "[4]; imazamox 75 gm ai/ha (100/75)", "value": 7.2, "unit": "days"}, {"measurement": "Injury at 14 DAT", "setting": "[4]; imazamox 150 gm ai/ha", "value": 8.2, "unit": "days"}, {"measurement": "Injury at 14 DAT", "setting": "[4]; imazamox 300 gm ai/ha", "value": 8.7, "unit": "e"}, {"measurement": "Injury at 14 DAT", "setting": "[5]; imazamox 75 gm ai/ha (100/75)", "value": 1.9, "unit": "b"}, {"measurement": "Injury at 14 DAT", "setting": "[5]; imazamox 150 gm ai/ha", "value": 4.8, "unit": "c"}, {"measurement": "Injury at 14 DAT", "setting": "[5]; imazamox 300 gm ai/ha", "value": 5.3, "unit": "c"}, {"measurement": "Injury at 14 DAT", "setting": "[6]; imazamox 75 gm ai/ha (100/75), scale 0-9", "value": 4.3, "unit": "c"}, {"measurement": "Injury at 14 DAT", "setting": "[6]; imazamox 150 gm ai/ha (column 200/150), scale 0-9", "value": 4.6, "unit": "c"}, {"measurement": "Injury at 14 DAT", "setting": "[6]; imazamox 150 gm ai/ha (column 200/150), scale 0-9, listed as imazamox", "value": "significantly in juried and had stopped growing"}, {"measurement": "Injury at 14 DAT", "setting": "[6]; [7]", "value": 6.5, "unit": "days"}]}
